Laboratory results taken from patent US20080274892A1, “Novel Haloalkylsulfonanilide Derivative, Herbicide, and Method of Use Thereof” (priority 2005, published 2008).

Columns and labels:
bulrush [1] = test: Test Example 2: herbicidal efficacy on rice paddy weeds post-emergence; type: in vivo, Scirpus juncoides; conditions: 21 days after treatment
Source text: (§1) The standard of judgment for herbicidal efficacy (degree of growth inhibition) and phytotoxicity 4 . . . 90%-100% of herbicidal efficacy or phytotoxicity 3 . . . 70%-89% of herbicidal efficacy or phytotoxicity 2 . . . 40%-69% of herbicidal efficacy or phytotoxicity 1 . . . 1%-39% of herbicidal efficacy or phytotoxicity 0 . . . 0% of herbicidal efficacy or phytotoxicity
(§2) A 75 cm^2 plastic pot was filled with soil (clay loam) and planted seeds of barnyard glass and bulrush which is a rice paddy weed. After covering the top with 75 cm^3 soil mixed with seeds of false pimpernel, the pot was filled with water so that the soil submerged under 5 cm depth of water and kept in a hot house. […] The pot was kept in a hot house for 21 days after the treatment and the herbicidal efficacy was investigated and evaluated according to the standard in Test Example 1 by comparing with the untreated control. “-” in the table represents test not done.

false pimpernel [2] = test: as above; type: in vivo, Lindernia pyxidaria; conditions: 21 days after treatment
Source text: as §1, §2

bulrush [3] = test: Test Example 1: herbicidal efficacy on rice paddy weeds pre-emergence; type: in vivo, Scirpus juncoides; conditions: 21 days
Procedure: (§3) A 75 cm^2 plastic pot was filled with soil (clay loam) and planted seeds of bulrush which is a rice paddy weed. After covering the top with 75 cm^3 soil mixed with seeds of false pimpernel, the pot was filled with water so that the soil submerged under 5 cm depth of water. The predetermined effective dosage ([…]) of a formulation containing the compound of the present invention prepared according to Formulation Example 1-4 as an active ingredient was diluted in water and added to the pot water surface dropwise. The pot was kept in a hot house for 21 days and the herbicidal efficacy was investigated. The herbicidal efficacy was evaluated according to the following standard by comparing with untreated control. “-” in the table represents test not done.
as §1

[4] = tested on: paddy rice plant (cultivar: Nihonbare); test: Test Example 3: phytotoxicity test for transplanted paddy rice plant; type: in vivo; conditions: 21 days after treatment; for Phytotoxicity to paddy rice: transplanted rice
Procedure: as §1
A 75 cm^2 plastic pot was filled with soil (clay loam), and water was added so that the soil was submerged under 5 cm depth of water. Two paddy rice plant (cultivar: Nihonbare) at two leaves stage were transplanted at the depth of 1 cm and kept in a hot house. […] The pot was kept in a hot house for 21 days after the treatment and the phytotoxicity was investigated and evaluated according to the standard in Test Example 1 by comparing with the untreated control. “-” in the table represents test not done.

false pimpernel [5] = test: Test Example 1: herbicidal efficacy on rice paddy weeds pre-emergence; type: in vivo, Lindernia pyxidaria; conditions: 21 days
Procedure: as §3, §1

[6] = dosage 1000 g/ha active ingredient, post-emergence treatment at one leaf stage, vs untreated control
[7] = dosage 1000 g/ha, post-emergence, one leaf stage
[8] = dosage 1000 g/ha, treated 5 days after transplantation
[9] = dosage 300 g/ha, post-emergence, one leaf stage

SMILES | Bulrush post (herbicidal efficacy grade) (bulrush [1]; [7]) | False pimpernel post (herbicidal efficacy grade) (false pimpernel [2]; [7]) | Bulrush pre (herbicidal efficacy grade) (bulrush [3]; dosage 1000 g/ha) | Phytotoxicity to paddy rice [4, 8] | False pimpernel pre (herbicidal efficacy grade) (false pimpernel [5]; dosage 1000 g/ha) | Bulrush post (herbicidal efficacy grade) (bulrush [1]; [9]) | False pimpernel post (herbicidal efficacy grade) (false pimpernel [2]; [9]) | Bulrush pre (herbicidal efficacy grade) (bulrush [3]; dosage 300 g/ha) | Phytotoxicity to paddy rice ([4]; dosage 300 g/ha) | False pimpernel pre (herbicidal efficacy grade) (false pimpernel [5]; dosage 300 g/ha) | further results
COCOc1cccc(CN2CC(C)(C)OC2=O)c1N(C(=O)OCC(C)C)S(=O)(=O)C(F)(F)F [1-213] | – | – | – | – | – | – | – | – | – | – | Bulrush post (herbicidal efficacy grade) (bulrush [1]; [6]): 4 (90%-100% of herbicidal efficacy or phytotoxicity); False pimpernel post (herbicidal efficacy grade) (false pimpernel [2]; [6]): 2 (40%-69% of herbicidal efficacy or phytotoxicity); Bulrush pre (herbicidal efficacy grade) (bulrush [3]; dosage 1000 g/ha active ingredient, vs untreated control): 4 (90%-100% of herbicidal efficacy or phytotoxicity); Phytotoxicity to paddy rice (grade) ([4]; dosage 1000 g/ha active ingredient, treated 5 days after transplantation, vs untreated control): 1 (1%-39% of herbicidal efficacy or phytotoxicity)
COCC1CN(Cc2ccccc2NS(=O)(=O)C(F)(F)F)C(=O)O1 (stereo not drawn) [Compound 1-35] | 4 (90%-100% of herbicidal efficacy or phytotoxicity) | 4 (90%-100% of herbicidal efficacy or phytotoxicity) | 4 (90%-100% of herbicidal efficacy or phytotoxicity) | 1 (1%-39% of herbicidal efficacy or phytotoxicity) | 4 (90%-100% of herbicidal efficacy or phytotoxicity) | – | – | – | – | – | –
CC1(C)CN(Cc2ccccc2N(C(=O)OCc2ccccc2)S(=O)(=O)C(F)(F)F)C(=O)O1 [Compound 1-83] | – | – | – | – | – | 4 (90%-100% of herbicidal efficacy or phytotoxicity) | 1 (1%-39% of herbicidal efficacy or phytotoxicity) | 4 (90%-100% of herbicidal efficacy or phytotoxicity) | 0 (0% of herbicidal efficacy or phytotoxicity) | 1 (1%-39% of herbicidal efficacy or phytotoxicity) | –
CCCCCCCCCCCCCCCCOC(=O)N(c1ccccc1CN1CC(C)(C)OC1=O)S(=O)(=O)C(F)(F)F [Compound 1-84] | – | – | – | – | – | 3 (70%-89% of herbicidal efficacy or phytotoxicity) | 4 (90%-100% of herbicidal efficacy or phytotoxicity) | 4 (90%-100% of herbicidal efficacy or phytotoxicity) | 1 (1%-39% of herbicidal efficacy or phytotoxicity) | 4 (90%-100% of herbicidal efficacy or phytotoxicity) | –
O=C1OC2(CC2)CN1Cc1ccccc1NS(=O)(=O)C(F)(F)F [Compound 1-88] | – | – | – | – | – | 4 (90%-100% of herbicidal efficacy or phytotoxicity) | 4 (90%-100% of herbicidal efficacy or phytotoxicity) | 4 (90%-100% of herbicidal efficacy or phytotoxicity) | 1 (1%-39% of herbicidal efficacy or phytotoxicity) | 4 (90%-100% of herbicidal efficacy or phytotoxicity) | –
CC(C)COC(=O)N(c1ccccc1CN1CC(C)(c2ccccc2)OC1=O)S(=O)(=O)C(F)(F)F (stereo not drawn) [Compound 1-141] | – | – | – | – | – | 4 (90%-100% of herbicidal efficacy or phytotoxicity) | 4 (90%-100% of herbicidal efficacy or phytotoxicity) | 3 (70%-89% of herbicidal efficacy or phytotoxicity) | 1 (1%-39% of herbicidal efficacy or phytotoxicity) | 4 (90%-100% of herbicidal efficacy or phytotoxicity) | –
CC(C)COC(=O)N(c1ccccc1CN1CC(C)(C2CCCCC2)OC1=O)S(=O)(=O)C(F)(F)F (stereo not drawn) [Compound 1-156] | – | – | – | – | – | 4 (90%-100% of herbicidal efficacy or phytotoxicity) | 4 (90%-100% of herbicidal efficacy or phytotoxicity) | 4 (90%-100% of herbicidal efficacy or phytotoxicity) | 1 (1%-39% of herbicidal efficacy or phytotoxicity) | 4 (90%-100% of herbicidal efficacy or phytotoxicity) | –
CC(C)=CC1(C)CN(Cc2ccccc2NS(=O)(=O)C(F)(F)F)C(=O)O1 (stereo not drawn) [Compound 1-164] | 4 (90%-100% of herbicidal efficacy or phytotoxicity) | 4 (90%-100% of herbicidal efficacy or phytotoxicity) | 4 (90%-100% of herbicidal efficacy or phytotoxicity) | 1 (1%-39% of herbicidal efficacy or phytotoxicity) | 4 (90%-100% of herbicidal efficacy or phytotoxicity) | – | – | – | – | – | –
CC(C)=CC1(C)CN(Cc2ccccc2N(C(=O)OCC(C)C)S(=O)(=O)C(F)(F)F)C(=O)O1 (stereo not drawn) [Compound 1-165] | 4 (90%-100% of herbicidal efficacy or phytotoxicity) | 4 (90%-100% of herbicidal efficacy or phytotoxicity) | 4 (90%-100% of herbicidal efficacy or phytotoxicity) | 1 (1%-39% of herbicidal efficacy or phytotoxicity) | 4 (90%-100% of herbicidal efficacy or phytotoxicity) | – | – | – | – | – | –
COC(=O)N(c1ccccc1CN1CC(C)(C=C(C)C)OC1=O)S(=O)(=O)C(F)(F)F (stereo not drawn) [Compound 1-166] | 4 (90%-100% of herbicidal efficacy or phytotoxicity) | 4 (90%-100% of herbicidal efficacy or phytotoxicity) | 4 (90%-100% of herbicidal efficacy or phytotoxicity) | 2 (40%-69% of herbicidal efficacy or phytotoxicity) | 4 (90%-100% of herbicidal efficacy or phytotoxicity) | – | – | – | – | – | –
CC1(COCc2ccccc2)CN(Cc2ccccc2NS(=O)(=O)C(F)(F)F)C(=O)O1 (stereo not drawn) [Compound 1-173] | 4 (90%-100% of herbicidal efficacy or phytotoxicity) | 4 (90%-100% of herbicidal efficacy or phytotoxicity) | 4 (90%-100% of herbicidal efficacy or phytotoxicity) | 1 (1%-39% of herbicidal efficacy or phytotoxicity) | 4 (90%-100% of herbicidal efficacy or phytotoxicity) | – | – | – | – | – | –
CC1(C)OC1C1(C)CN(Cc2ccccc2NS(=O)(=O)C(F)(F)F)C(=O)O1 (stereo not drawn) [Compound 1-176] | 4 (90%-100% of herbicidal efficacy or phytotoxicity) | 4 (90%-100% of herbicidal efficacy or phytotoxicity) | 4 (90%-100% of herbicidal efficacy or phytotoxicity) | 1 (1%-39% of herbicidal efficacy or phytotoxicity) | 4 (90%-100% of herbicidal efficacy or phytotoxicity) | – | – | – | – | – | –
CC1OC(=O)N(Cc2ccccc2NS(=O)(=O)C(F)(F)F)C1=O (stereo not drawn) [Compound 1-190] | – | – | – | – | – | 4 (90%-100% of herbicidal efficacy or phytotoxicity) | 2 (40%-69% of herbicidal efficacy or phytotoxicity) | 4 (90%-100% of herbicidal efficacy or phytotoxicity) | 0 (0% of herbicidal efficacy or phytotoxicity) | 4 (90%-100% of herbicidal efficacy or phytotoxicity) | –
CCOC1N(Cc2ccccc2NS(=O)(=O)C(F)(F)F)C(=O)OC1(C)C (stereo not drawn) [Compound 1-198] | – | – | – | – | – | – | – | 4 (90%-100% of herbicidal efficacy or phytotoxicity) | 2 (40%-69% of herbicidal efficacy or phytotoxicity) | – | –
